Tested on: HaCaTa cells

| SMILES | protection from drug-induced toxicity (Absorbance units) (0.625 mM NAC plus cooling at 22° C., extremely high doses of 4-OH-CP (FIG. 5)) | cytoprotection from combinatorial drug treatment (AC), versus cooling alone (0.625 mM NAC plus cooling at 26° C. or 22° C., sequential doxorubicin 3 μg/ml (1 h) and 4-OH-CP 5 μg/ml (1 h) (FIG. 7)) | cytoprotection of cooling at 26° C. with inhibition of ROS, compared with 22° C. at same CP concentration (0.625 mM NAC plus cooling at 26° C., 4-OH-CP (FIG. 4 vs FIG. 3)) | protection from drug-induced toxicity (% relative to control) (0.625 mM NAC plus cooling at 26° C., extremely high doses of doxorubicin (FIG. 6)) | cytotoxicity of the drug in keratinocytes |
| --- | --- | --- | --- | --- | --- |
| CC(=O)N[C@@H](CS)C(=O)O [NAC, N-acetyl-cysteine] | strikingly high levels of protection | better cytoprotection | highly cytoprotective | strikingly high levels of protection | – |
| COc1cccc2c1C(=O)c1c(O)c3c(c(O)c1C2=O)C[C@@](O)(C(=O)CO)C[C@@H]3O[C@H]1C[C@H](N)[C@H](O)[C@H](C)O1 [doxorubicin] | – | – | – | – | nearly total cytotoxicity (death) |
